Here are results for one molecule from paper PMC6900016, “Synthesis of Indomorphan Pseudo‐Natural Product Inhibitors of Glucose Transporters GLUT‐1 and ‐3” (Angewandte Chemie (International Ed. in English), 2019).

Assay in all cases: cells
Holding throughout (design): Cell growth inhibition, sulforhodamine B total protein staining

One assay has as its system SUDHL6. The note with it: Homo sapiens, SU-DHL-6; 72 h growth; read-out: Cell growth inhibition IC50/µM. As for the experimental part: (§1) Cell panel profiling A panel of 94 cell lines was exposed to Glupin for 72 h to assess the influence on cell growth (Oncolead, Germany). Cell growth was determined using sulforhodamine B assay. Measurements were performed using a total protein staining protocol. Briefly, after treatement cells were fixed addition of 10% TCA (for adherent growing cells) or 50% TCA (for semi-adherent growing cells or cells growing in suspension). After an incubation at 4°C for 1 h, plates were washed twice with 400 μl of deionized water and dried. Cells were then stained with 100 μl of 0.04% wt/v sulforhodamine B. Plates were incubated at room temperature for at least 30 min and washed six times with 1% acetic acid to remove unbound stain. […] This effect was much stronger at a physiological glucose concentration (5 mM; Figure 5 b,c). […] IC50 values lower than 300 nM were obtained for more than 20 cell lines, whereas 24 cell lines were not affected by the compound, among them the peripheral blood mononuclear control cells (PBMCs). Sensitivity to Glupin was detected across various tissue types (Table S6).

The next assay has as its system SW620. The note with it: Homo sapiens, SW-620; 72 h growth; read-out: Cell growth inhibition IC50/µM. As for the experimental part:
as §1

The subject of a further assay is DLD1. The note with it: Homo sapiens, DLD-1; 72 h growth; read-out: Cell growth inhibition IC50/µM. As for the experimental part: as §1
Another assay concerns SKNSH. Particulars: Homo sapiens, SK-N-SH; 72 h growth; read-out: Cell growth inhibition IC50/µM. As for the experimental part: as §1
The subject of a further assay is JIMT1. The note with it: Homo sapiens, JIMT-1; 72 h growth; read-out: Cell growth inhibition IC50/µM. As for the experimental part:
as §1

The test system of a further assay is MIAPACA2. The note with it: Homo sapiens, MIA PaCa-2; 72 h growth; read-out: Cell growth inhibition IC50/µM. As for the experimental part: as §1
In another assay the test system is OVCAR3. The note with it: Homo sapiens, OVCAR-3; 72 h growth; read-out: Cell growth inhibition IC50/µM. As for the experimental part: as §1
The next assay deals with SKOV3. Particulars: Homo sapiens, SK-OV-3; 72 h growth; read-out: Cell growth inhibition IC50/µM. As for the experimental part: as §1
The subject of the next assay is MHHES1. The note with it: Homo sapiens, MHH-ES-1; 72 h growth; read-out: Cell growth inhibition IC50/µM. As for the experimental part:
as §1

For the next assay, the system named is NCIH292. Particulars: Homo sapiens, NCI-H292; 72 h growth; read-out: Cell growth inhibition IC50/µM. As for the experimental part:
as §1

For a further assay, the system named is SKBR3. Particulars: Homo sapiens, SK-BR-3; 72 h growth; read-out: Cell growth inhibition IC50/µM. As for the experimental part:
as §1

Another assay has as its system SF268. The note with it: Homo sapiens, SF-268; 72 h growth; read-out: Cell growth inhibition IC50/µM. As for the experimental part:
as §1

A further assay relates to DU145. Particulars: Homo sapiens, DU-145; 72 h growth; read-out: Cell growth inhibition IC50/µM. As for the experimental part:
as §1

A further assay concerns RD. The note with it: Homo sapiens, RD; 72 h growth; read-out: Cell growth inhibition IC50/µM. As for the experimental part: as §1
Another assay relates to C33A. The note with it: Homo sapiens, C-33-A; 72 h growth; read-out: Cell growth inhibition IC50/µM. As for the experimental part: as §1
The test system of another assay is PC3. The note with it: Homo sapiens, PC-3; 72 h growth; read-out: Cell growth inhibition IC50/µM. As for the experimental part:
as §1

Another assay has as its system PANC1. Particulars: Homo sapiens, PANC-1; 72 h growth; read-out: Cell growth inhibition IC50/µM. As for the experimental part:
as §1

The test system of a further assay is A204. The note with it: Homo sapiens, A204; 72 h growth; read-out: Cell growth inhibition IC50/µM. As for the experimental part: as §1
The subject of another assay is NCIH358M. The note with it: NCI-H358M; 72 h growth; read-out: Cell growth inhibition IC50/µM. As for the experimental part: as §1
The subject of the next assay is CALU6. The note with it: Homo sapiens, Calu-6; 72 h growth; read-out: Cell growth inhibition IC50/µM. As for the experimental part: as §1
Another assay deals with L363. Particulars: Homo sapiens, L-363; 72 h growth; read-out: Cell growth inhibition IC50/µM. As for the experimental part:
as §1

A further assay has as its system WSUNHL. The note with it: Homo sapiens, WSU-NHL; 72 h growth; read-out: Cell growth inhibition IC50/µM. As for the experimental part: as §1
A further assay concerns NCIH82. The note with it: Homo sapiens, NCI-H82; 72 h growth; read-out: Cell growth inhibition IC50/µM. As for the experimental part: as §1

As to `CCOC(=O)Cn1c2c(c3ccccc31)C[C@@H]1C[C@H]2C(OC)CN1C(=O)c1cccnc1SC` (single isomer, unassigned; (+)) [(+)-5a, Glupin], the IC50 in the assay on SUDHL6 is 0.092 µM; with SW620 it was > 30 µM; in the assay on DLD1, 0.825 µM; with SKNSH, 0.084 µM; in the assay on JIMT1 it was 0.113 µM; with MIAPACA2 it was 0.061 µM. The IC50 with OVCAR3 was > 30 µM; in the assay on SKOV3, 6.07 µM; in the assay with MHHES1, 1.49 µM; in the assay with NCIH292 it was > 30 µM; with SKBR3, > 30 µM; with SF268, 0.37 µM. The IC50 turned out to be 0.317 µM in the assay on DU145; 0.842 µM in the assay on RD; 1.5 µM in the assay on C33A; 0.827 µM with PC3; 0.706 µM in the assay with PANC1; 0.562 µM in the assay with A204. Besides, the IC50 in the assay on NCIH358M is > 30 µM; with CALU6, 0.538 µM; in the assay with L363, 2.87 µM; in the assay with WSUNHL, 0.062 µM; in the assay on NCIH82, 1.17 µM.
